In patent US20240180900A1, “COMPOUNDS AND METHODS FOR THE TARGETED DEGRADATION OF ANDROGEN RECEPTOR” (Arvinas Operations, Inc., priority 2022, published 2024):

Columns and labels:
AR = target: T1, AR (Homo sapiens, UniProt P10275); test: AR degradation in castrated mice bearing VCaP xenografts (western blotting); assay type: in vivo, mouse; design: from tissue; host or cells: VCaP xenograft tumour tissue from castrated CB17/SCID mice
T1 sequence (P10275 1-920): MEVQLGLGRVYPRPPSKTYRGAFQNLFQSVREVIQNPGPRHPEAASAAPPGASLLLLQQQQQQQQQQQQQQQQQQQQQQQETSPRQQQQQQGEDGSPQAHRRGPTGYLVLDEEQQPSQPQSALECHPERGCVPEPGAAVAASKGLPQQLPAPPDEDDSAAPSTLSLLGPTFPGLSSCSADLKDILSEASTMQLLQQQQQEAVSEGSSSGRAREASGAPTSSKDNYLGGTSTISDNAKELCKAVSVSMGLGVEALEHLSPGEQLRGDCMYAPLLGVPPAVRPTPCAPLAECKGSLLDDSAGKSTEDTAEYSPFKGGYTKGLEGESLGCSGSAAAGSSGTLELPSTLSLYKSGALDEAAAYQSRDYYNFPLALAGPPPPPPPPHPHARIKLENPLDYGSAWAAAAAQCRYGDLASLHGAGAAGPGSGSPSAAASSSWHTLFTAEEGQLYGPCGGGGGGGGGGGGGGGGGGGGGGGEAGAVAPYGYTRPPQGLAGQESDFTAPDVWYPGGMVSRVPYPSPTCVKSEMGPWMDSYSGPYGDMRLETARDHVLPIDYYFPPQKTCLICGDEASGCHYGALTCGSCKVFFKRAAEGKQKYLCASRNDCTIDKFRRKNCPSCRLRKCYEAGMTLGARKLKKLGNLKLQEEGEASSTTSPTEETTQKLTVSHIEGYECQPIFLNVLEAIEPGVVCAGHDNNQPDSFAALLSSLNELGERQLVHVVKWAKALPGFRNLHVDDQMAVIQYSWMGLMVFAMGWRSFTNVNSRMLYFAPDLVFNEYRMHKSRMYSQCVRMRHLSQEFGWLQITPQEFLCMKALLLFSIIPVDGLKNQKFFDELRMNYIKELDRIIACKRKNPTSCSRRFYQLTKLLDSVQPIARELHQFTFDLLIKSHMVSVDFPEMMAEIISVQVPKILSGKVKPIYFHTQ
Procedure: Tumors were harvested 16 hours post-dose and tumor AR level was established by western blotting. Antibody recognizing human mitochondria specific antibody (Mito.C) was employed as a loading control. The quantitation of AR levels from the western blot is shown (lower panel).
Castration eliminates testosterone produced by the testes. Upon castration, prostate tumor cells implanted in the mouse start to produce testosterone on their own, enabling their growth. The effect of Compound A on AR degradation in vivo was evaluated in castrated mice bearing VCaP xenografts. To recapitulate human CRPC, when the implanted tumors reached a volume of approximately 100 mm^3, the mice were surgically castrated. Three weeks after castration, mice were administered a single PO dose of Compound A at 10, 3, 1, 0.3, 0.1, 0.03, or 0 (vehicle) mg/kg via gavage. Sixteen hours after treatment, the tumor tissues were collected, and lysates were prepared to assess AR expression by western blotting. At Compound A doses of 10, 3, 1, 0.3, 0.1, and 0.03 mg/kg, AR was reduced on average by 96%, 91%, 81%, 73%, -5%, and 14%, respectively (FIG. 11), compared to vehicle control.

AR V716M = target: T2, AR V716M (Homo sapiens, UniProt P10275, V716M); test: AR degradation in T-Rex-293 cell line, V716M; assay type: cell-based; settings: T-Rex-293, ELISA
T2 construct: expressed in transfected cells; host or cells: T-REx-293
T2 sequence (P10275 whole entry V716M): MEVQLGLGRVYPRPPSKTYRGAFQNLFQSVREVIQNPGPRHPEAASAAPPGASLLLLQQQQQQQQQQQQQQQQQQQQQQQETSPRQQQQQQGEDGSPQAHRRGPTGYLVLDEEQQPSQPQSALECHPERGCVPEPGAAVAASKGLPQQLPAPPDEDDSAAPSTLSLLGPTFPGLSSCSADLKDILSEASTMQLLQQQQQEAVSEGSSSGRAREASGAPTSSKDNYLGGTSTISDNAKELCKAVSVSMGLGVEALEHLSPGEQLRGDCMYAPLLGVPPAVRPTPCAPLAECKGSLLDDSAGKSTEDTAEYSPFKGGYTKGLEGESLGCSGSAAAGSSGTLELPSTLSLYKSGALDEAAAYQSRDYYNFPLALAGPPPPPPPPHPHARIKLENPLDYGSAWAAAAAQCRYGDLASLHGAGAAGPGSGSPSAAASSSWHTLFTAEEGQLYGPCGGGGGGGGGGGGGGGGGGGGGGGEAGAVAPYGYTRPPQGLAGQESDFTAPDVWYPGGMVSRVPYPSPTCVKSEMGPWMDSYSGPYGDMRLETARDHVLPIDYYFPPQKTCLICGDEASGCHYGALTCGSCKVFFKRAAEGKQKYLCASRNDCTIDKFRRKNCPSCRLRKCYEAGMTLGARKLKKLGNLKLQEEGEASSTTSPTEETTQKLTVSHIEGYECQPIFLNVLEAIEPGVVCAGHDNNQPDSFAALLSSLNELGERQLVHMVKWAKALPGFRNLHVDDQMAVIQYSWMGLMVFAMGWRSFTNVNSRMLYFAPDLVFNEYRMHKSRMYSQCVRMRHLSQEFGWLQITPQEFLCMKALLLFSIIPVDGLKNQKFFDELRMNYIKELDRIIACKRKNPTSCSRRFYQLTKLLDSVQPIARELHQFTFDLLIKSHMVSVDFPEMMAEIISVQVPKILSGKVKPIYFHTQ
Description: FIG. 3 is a graph showing Compound A's ability to degrade clinically relevant mutated forms AR.
To assess the ability of Compound A to degrade variants of the AR, vectors expressing wild-type AR or mutant AR proteins harboring clinically observed mutations in the ligand binding domain (13 with single amino acid changes or 4 with 2 amino acid changes) (Azad A. A., Volik S. V., Wyatt A. W., et al. Androgen receptor gene aberrations in circulating cell-free DNA: biomarkers of therapeutic resistance in castration-resistant prostate cancer. Clin Cancer Res. 2015; 21:2315-2324; Robinson D., Van Allen E. M., Wu Y. M., et al. Integrative clinical genomics of advanced prostate cancer. Cell. 2015; 161:1215-1228; Ledet E. M., Lilly M. B., Sonpavde G., et al. Comprehensive analysis of AR alterations in circulating tumor DNA from patients with advanced prostate cancer. Oncologist.

Structure (SMILES): COc1cc(O[C@H]2C(C)(C)[C@H](NC(=O)c3ccc(N4CCC(CN5CCN(c6ccc(C(=O)N[C@H]7CCC(=O)NC7=O)c(F)c6)CC5)CC4)cc3)C2(C)C)ccc1C#N [Compound A, 4-(4-((1-(4-(((1R,3R)-3-(4-cyano-3-methoxyphenoxy)-2,2,4,4-tetramethylcyclobutyl)carbamoyl)phenyl)piperidin-4-yl)methyl)piperazin-1-yl)-N—((S)-2,6-dioxopiperidin-3-yl)-2-fluorobenzamide]
- AR reduced on average vs vehicle control (AR; single PO dose 0.03 mg/kg, 16 hours): 14%
- AR reduced on average vs vehicle control (AR; single PO dose 0.1 mg/kg, 16 hours): -5%
- AR reduced on average vs vehicle control (AR; single PO dose 0.3 mg/kg, 16 hours): 73%
- AR reduced on average vs vehicle control (AR; single PO dose 1 mg/kg, 16 hours): 81%
- AR reduced on average vs vehicle control (AR; single PO dose 3 mg/kg, 16 hours): 91%
- AR reduced on average vs vehicle control (AR; single PO dose 10 mg/kg, tumors 16 hours post-dose): 96%
- DC50 (AR V716M): 0.4 nM
